Reference: US20120121591A1 (priority 2009, published 2012)

Key:
Type in all cases: cell-based
[1] = system: IFN-g secretion from T cells in human whole blood; conditions: read-out: WB (IFNg) IC50 (nM, Avg)
[2] = system: IL-2 secretion from T cells in human whole blood; conditions: read-out: WB (IL-2) IC50 (nM, Avg)
[3] = biological target: hKv1.3 (Homo sapiens, UniProt P22001); test: cell-based; conditions: Kv1.3 (IWQ) IC50 (nM, Avg)
Sequence of hKv1.3 (P22001 whole entry): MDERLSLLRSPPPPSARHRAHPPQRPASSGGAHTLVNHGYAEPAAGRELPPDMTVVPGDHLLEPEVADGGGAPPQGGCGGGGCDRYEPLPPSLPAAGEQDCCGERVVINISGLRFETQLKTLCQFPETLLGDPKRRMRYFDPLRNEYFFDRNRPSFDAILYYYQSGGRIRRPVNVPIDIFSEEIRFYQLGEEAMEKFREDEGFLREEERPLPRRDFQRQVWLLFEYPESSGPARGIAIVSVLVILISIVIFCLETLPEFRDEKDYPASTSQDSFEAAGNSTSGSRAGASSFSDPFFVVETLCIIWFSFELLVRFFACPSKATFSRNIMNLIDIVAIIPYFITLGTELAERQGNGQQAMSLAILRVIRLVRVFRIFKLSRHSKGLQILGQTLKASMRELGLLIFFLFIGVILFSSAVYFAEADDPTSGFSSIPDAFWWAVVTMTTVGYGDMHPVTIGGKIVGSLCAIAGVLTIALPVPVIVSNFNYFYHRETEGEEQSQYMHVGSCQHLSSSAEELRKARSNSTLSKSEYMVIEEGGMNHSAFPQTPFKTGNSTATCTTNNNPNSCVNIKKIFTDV

Structure (SMILES) | IC50 [1] [nM] | IC50 [2] [nM] | IC50 [3] [nM]
CC[C@H](C)[C@@H]1NC(=O)[C@@H](NC(=O)[C@H](CO)NC(=O)[C@@H](N)CCCNC(=N)N)CSSC[C@@H](C(N)=O)NC(=O)[C@H]([C@@H](C)O)NC(=O)CNC(=O)[C@@H]2CSSC[C@@H]3NC(=O)[C@H](CCCCN)NC(=O)[C@H](Cc4ccccc4)NC(=O)[C@H](C)NC(=O)[C@H]([C@@H](C)O)NC(=O)[C@H](CSSC[C@H](NC(=O)[C@H](Cc4cccc5ccccc45)NC(=O)[C@H](CO)NC(=O)[C@H](CC(C)C)NC(=O)[C@H](CCCNC(=N)N)NC(=O)[C@H](Cc4ccc(O)cc4)NC(=O)[C@H](CCCCN)NC(=O)[C@H](CCSC)NC(=O)[C@H](CO)NC(=O)[C@H](Cc4c[nH]cn4)NC(=O)[C@H](CCCCN)NC3=O)C(=O)N[C@@H](CCCNC(=N)N)C(=O)N[C@@H](CCCCN)C(=O)N[C@@H]([C@@H](C)O)C(=O)N2)NC(=O)[C@H](CCCNC(=N)N)NC(=O)[C@H](CO)NC(=O)[C@H](CCCCN)NC(=O)[C@@H]2CCCN2C(=O)[C@H]([C@@H](C)CC)NC(=O)[C@H]([C@@H](C)O)NC(=O)[C@H](CC(=O)O)NC1=O [[Lys16,1-Na127]ShK-amide] | 2.94 | 3.95 | 0.299
CC[C@H](C)[C@@H]1NC(=O)[C@@H](NC(=O)[C@H](CO)NC(=O)[C@@H](N)CCCNC(=N)N)CSSC[C@@H](C(=O)O)NC(=O)[C@H]([C@@H](C)O)NC(=O)CNC(=O)[C@@H]2CSSC[C@@H]3NC(=O)[C@H](CCCCN)NC(=O)[C@H](Cc4ccccc4)NC(=O)[C@H](C)NC(=O)[C@H]([C@@H](C)O)NC(=O)[C@H](CSSC[C@H](NC(=O)[C@H](Cc4cccc5ccccc45)NC(=O)[C@H](CO)NC(=O)[C@H](CC(C)C)NC(=O)[C@H](CCCNC(=N)N)NC(=O)[C@H](Cc4ccc(O)cc4)NC(=O)[C@H](CCCCN)NC(=O)[C@H](CCSC)NC(=O)[C@H](CO)NC(=O)[C@H](Cc4c[nH]cn4)NC(=O)[C@H](CCCCN)NC3=O)C(=O)N[C@@H](CCCNC(=N)N)C(=O)N[C@@H](CCCCN)C(=O)N[C@@H]([C@@H](C)O)C(=O)N2)NC(=O)[C@H](CCCNC(=N)N)NC(=O)[C@H](CO)NC(=O)[C@H](CCCCN)NC(=O)[C@@H]2CCCN2C(=O)[C@H]([C@@H](C)CC)NC(=O)[C@H]([C@@H](C)O)NC(=O)[C@H](CC(=O)O)NC1=O [[Lys16,1-Na127]ShK] | 5.68 | 0.924 | 0.113
CC[C@H](C)[C@@H]1NC(=O)[C@@H](NC(=O)[C@H](CO)NC(=O)[C@@H](N)CCCNC(=N)N)CSSC[C@@H](C(N)=O)NC(=O)[C@H]([C@@H](C)O)NC(=O)CNC(=O)[C@@H]2CSSC[C@@H]3NC(=O)[C@H](CCCCN)NC(=O)[C@H](Cc4ccccc4)NC(=O)[C@H](C)NC(=O)[C@H]([C@@H](C)O)NC(=O)[C@H](CSSC[C@H](NC(=O)[C@H](Cc4ccccc4)NC(=O)[C@H](Cc4ccc5ccccc5c4)NC(=O)[C@H](CC(C)C)NC(=O)[C@H](CCCNC(=N)N)NC(=O)[C@H](Cc4ccc(O)cc4)NC(=O)[C@H](CCCCN)NC(=O)[C@H](CCSC)NC(=O)[C@H](CO)NC(=O)[C@H](Cc4c[nH]cn4)NC(=O)[C@H](CCCCN)NC3=O)C(=O)N[C@@H](CCCCN)C(=O)N[C@@H](CCCCN)C(=O)N[C@@H]([C@@H](C)O)C(=O)N2)NC(=O)[C@H](CCCNC(=N)N)NC(=O)[C@H](CO)NC(=O)[C@H](CCCCN)NC(=O)[C@@H]2CCCN2C(=O)[C@H]([C@@H](C)CC)NC(=O)[C@H]([C@@H](C)O)NC(=O)[C@H](CC(=O)O)NC1=O [[Lys16,29;2-Na126]ShK-amide] | 0.148 | 0.222 | 0.762
